Literature values as cited in patent US20140243428A1, “SELF HEALING HYDROGELS” (The Regents of the University of California, priority 2013, published 2014).

Question: For NCCCCCC(=O)O [6-aminocaproic acid], which pKa is on record?
Answer: Its pKa is 4.4.
